From ChEMBL document CHEMBL4419178, “Yap1 inhibitors that target the interaction of yap1 with oct4” (2018)
Active and inactive are the calls of the source. The rule behind the calls is not given here.

Legend:
NCI-H1650 [1] = experiment: Effect on expression of Nanog mRNA expression in human NCI-H1650 cells at 5 to 10 uM incubated for 72 hrs by RT-PCR method; assay type: cell-based; settings: nci-h1650, 72 h
NCI-H1650 [2] = experiment: Effect on expression of Oct4 mRNA expression in human NCI-H1650 cells at 5 to 10 uM incubated for 72 hrs by RT-PCR method; assay type: cell-based; settings: nci-h1650, 72 h
SK-MEL-5 = experiment: Cytotoxicity in human SK-MEL-5 cells assessed as reduction in cell viability at 0.5 to 20 uM incubated for 72 hrs by MTT assay; assay type: functional, cell-based
NCI-H1650 [3] = experiment: Inhibition of YAP1/TEAD2 interaction in human NCI-H1650 cells assessed as suppression of CTGF mRNA expression at 5 to 10 uM incubated for 72 hrs by RT-PCR method; assay type: cell-based
PC-9 = experiment: Cytotoxicity in gefitinib resistant human PC9 cells assessed as reduction in cell viability at 1 to 20 uM by MTT assay; assay type: functional, cell-based
[4] = molecular target: Transcriptional coactivator YAP1 (Homo sapiens) (UniProt P46937); experiment: Inhibition of YAP1 in human NCI-H1650 cells assessed as suppression of fibronectin mRNA expression at 5 to 10 uM incubated for 72 hrs by RT-PCR method; assay type: cell-based
[5] = molecular target: Transcriptional coactivator YAP1 (Homo sapiens) (UniProt P46937); experiment: Inhibition of YAP1 in human NCI-H1650 cells assessed as reduction in Sox2 protein expression at 5 uM by luciferase reporter gene assay; assay type: cell-based
NCI-H226 = experiment: Cytotoxicity in human NCI-H226 cells assessed as reduction in cell viability at 0.5 to 20 uM incubated for 96 hrs by MTT assay; assay type: functional, cell-based
NCI-H1650 [6] = experiment: Inhibition of adherence-independent cell growth in human NCI-H1650 cells at 5 uM incubated for 33 days; assay type: functional, cell-based
NCI-H146 [7] = experiment: Inhibition of self-renewal capacity in methotrexate insensitive stem-like side-population cells of human NCI-H146 cells assessed as reduction in number of spheres at 2 uM incubated for 3 days after 7 days methotrexate exposure by sphere formation assay; assay type: functional
HUVEC = experiment: Inhibition of angiogenic tubule formation in HUVEC at 1 to 5 uM incubated for 18 to 24 hrs; assay type: functional, cell-based; settings: Homo sapiens
NCI-H146 [8] = experiment: Effect on expression of Nanog mRNA expression in human NCI-H146 cells at 5 to 10 uM incubated for 72 hrs by RT-PCR method; assay type: cell-based; settings: nci-h146, 72 h
NCI-H1975 = experiment: Cytotoxicity in gefitinib and erlotinib resistant human NCI-H1975 cells assessed as reduction in cell viability at 1 to 10 uM incubated for 72 hrs by MTT assay; assay type: functional, cell-based
A549 = experiment: Cytotoxicity in human A549 cells assessed as reduction in cell viability at 0.5 to 20 uM incubated for 72 hrs by MTT assay; assay type: functional, cell-based
NCI-H1703 [9] = experiment: Inhibition of adherence-independent cell growth in human NCI-H1703 cells at 5 uM incubated for 33 days; assay type: functional, cell-based
[10] = molecular target: Transcriptional coactivator YAP1 (Homo sapiens) (UniProt P46937); experiment: Inhibition of YAP1 in human NCI-H1703 cells assessed as suppression of Sox2 mRNA expression at 5 to 10 uM incubated for 72 hrs by RT-PCR method; assay type: cell-based
NCI-H1703 [11] = experiment: Effect on expression of Oct4 mRNA expression in human NCI-H1703 cells at 5 to 10 uM incubated for 72 hrs by RT-PCR method; assay type: cell-based; settings: nci-h1703, 72 h
NCI-H1650 [12] = experiment: Inhibition of adherence-independent cell growth in human NCI-H1650 cells at 10 uM incubated for 33 days; assay type: functional, cell-based
NCI-H146 [13] = experiment: Effect on expression of Oct4 mRNA expression in human NCI-H146 cells at 5 to 10 uM incubated for 72 hrs by RT-PCR method; assay type: cell-based; settings: nci-h146, 72 h
[14] = molecular target: Transcriptional coactivator YAP1 (Homo sapiens) (UniProt P46937); experiment: Inhibition of YAP1 in human NCI-H1703 cells assessed as suppression of fibronectin mRNA expression at 5 to 10 uM incubated for 72 hrs by RT-PCR method; assay type: cell-based
NCI-H1703 [15] = experiment: Inhibition of adherence-independent cell growth in human NCI-H1703 cells at 10 uM incubated for 33 days; assay type: functional, cell-based
NCI-H1650 [16] = experiment: Cytotoxicity in human NCI-H1650 cells assessed as reduction in cell viability at 0.5 to 20 uM incubated for 72 hrs by MTT assay; assay type: functional, cell-based
NCI-H1703 [17] = experiment: Inhibition of YAP1/TEAD2 interaction in human NCI-H1703 cells assessed as suppression of CTGF mRNA expression at 5 to 10 uM incubated for 72 hrs by RT-PCR method; assay type: cell-based
[18] = molecular target: Transcriptional coactivator YAP1 (Homo sapiens) (UniProt P46937); experiment: Inhibition of YAP1 in human NCI-H146 cells assessed as suppression of Sox2 mRNA expression at 5 to 10 uM incubated for 72 hrs by RT-PCR method; assay type: cell-based
NCI-H1650 [19] = experiment: Inhibition of self-renewal capacity in stem-like side-population cells of human NCI-H1650 cells assessed as reduction in number of spheres at 1 to 20 uM incubated for 10 days by sphere formation assay; assay type: functional, cell-based
NCI-H1703 [20] = experiment: Cytotoxicity in human NCI-H1703 cells assessed as reduction in cell viability at 0.5 to 20 uM incubated for 96 hrs by MTT assay; assay type: functional, cell-based
[21] = molecular target: Transcriptional coactivator YAP1 (Homo sapiens) (UniProt P46937); experiment: Inhibition of YAP1 in human NCI-H1650 cells assessed as disruption in YAP1/OCT4 interaction at 5 uM incubated for 72 hrs by immunoprecipitation-Westem blot assay; assay type: cell-based
NCI-H1650 [22] = experiment: Inhibition of self-renewal capacity in stem-like side-population cells of human NCI-H1650 cells assessed as reduction in number of spheres at 5 uM incubated for 10 days by sphere formation assay relative to control; assay type: functional; settings: NCI-H1650, 240 h
HCC827 = experiment: Cytotoxicity in erlotinib-resistant human HCC827 cells assessed as reduction in cell viability at 1 to 20 uM by MTT assay; assay type: functional, cell-based
Homo sapiens [23] = species on record: Homo sapiens; experiment: Cytotoxicity in human 92-1 cells assessed as reduction in cell viability at 0.5 to 20 uM incubated for 72 hrs by MTT assay; assay type: functional, cell-based
[24] = molecular target: Transcriptional coactivator YAP1 (Homo sapiens) (UniProt P46937); experiment: Inhibition of YAP1 in human NCI-H1650 cells assessed as suppression of Sox2 mRNA expression at 5 to 10 uM incubated for 72 hrs by RT-PCR method; assay type: cell-based
[25] = molecular target: Transcriptional coactivator YAP1 (Homo sapiens) (UniProt P46937); experiment: Inhibition of YAP1 in human NCI-H1703 cells assessed as suppression of vimentin mRNA expression at 5 to 10 uM incubated for 72 hrs by RT-PCR method; assay type: cell-based
[26] = molecular target: Transcriptional coactivator YAP1 (Homo sapiens) (UniProt P46937); experiment: Inhibition of YAP1 in human NCI-H1650 cells assessed as suppression of vimentin mRNA expression at 5 to 10 uM incubated for 72 hrs by RT-PCR method; assay type: cell-based
[27] = molecular target: Transcriptional coactivator YAP1 (Homo sapiens) (UniProt P46937); experiment: Inhibition of YAP1 in human A549 cells assessed as disruption in YAP1/OCT4 interaction at 5 uM incubated for 72 hrs by immunoprecipitation-Westem blot assay; assay type: cell-based
NCI-H1703 [28] = experiment: Effect on expression of Nanog mRNA expression in human NCI-H1703 cells at 5 to 10 uM incubated for 72 hrs by RT-PCR method; assay type: cell-based; settings: nci-h1703, 72 h
Homo sapiens [29] = species on record: Homo sapiens; experiment: Cytotoxicity in human WM1366 cells assessed as reduction in cell viability at 0.5 to 20 uM incubated for 72 hrs by MTT assay; assay type: functional, cell-based

Sequence of Transcriptional coactivator YAP1 (Homo sapiens) (P46937 whole entry): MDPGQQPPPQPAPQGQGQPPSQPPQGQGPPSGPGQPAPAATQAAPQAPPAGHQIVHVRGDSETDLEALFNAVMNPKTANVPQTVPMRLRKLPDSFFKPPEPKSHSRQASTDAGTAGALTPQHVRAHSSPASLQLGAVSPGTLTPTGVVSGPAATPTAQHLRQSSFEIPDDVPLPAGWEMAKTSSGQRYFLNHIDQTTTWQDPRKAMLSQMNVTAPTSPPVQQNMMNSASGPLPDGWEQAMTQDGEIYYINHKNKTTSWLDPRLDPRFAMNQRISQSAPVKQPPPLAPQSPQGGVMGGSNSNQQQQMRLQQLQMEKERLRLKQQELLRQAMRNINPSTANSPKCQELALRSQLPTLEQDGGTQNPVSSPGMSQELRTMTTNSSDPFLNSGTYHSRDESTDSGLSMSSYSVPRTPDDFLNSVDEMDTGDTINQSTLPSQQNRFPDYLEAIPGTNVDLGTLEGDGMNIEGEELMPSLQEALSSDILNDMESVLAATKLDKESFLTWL

| SMILES | Activity (NCI-H1650 [1]) | Activity (NCI-H1650 [2]) | Activity (SK-MEL-5) | inhibition (NCI-H1650 [3]) | Activity (PC-9) | inhibition [4] | inhibition [5] [%] | Activity (NCI-H226) | inhibition (NCI-H1650 [6]) | inhibition (NCI-H146 [7]) | inhibition (HUVEC) | Activity (NCI-H146 [8]) | Activity (NCI-H1975) | Activity (A549) | inhibition (NCI-H1703 [9]) | inhibition [10] | Activity (NCI-H1703 [11]) | inhibition (NCI-H1650 [12]) | Activity (NCI-H146 [13]) | inhibition [14] | other results |
| --- | --- | --- | --- | --- | --- | --- | --- | --- | --- | --- | --- | --- | --- | --- | --- | --- | --- | --- | --- | --- | --- |
| COC(=O)[C@H](Cc1ccc(OCc2ccccc2)cc1)NC(=O)CC1CCN(C(=O)CCc2ccc(Cl)c(Cl)c2)CC1 | Non-Toxic | Non-Toxic | Active | inactive | Active | Active | 85.5 | Active | Active | Active | Active | Non-Toxic | Active | Active | Active | Active | Non-Toxic | Active | Non-Toxic | Active | inhibition (NCI-H1703 [15]): Active; Activity (NCI-H1650 [16]): Active; inhibition (NCI-H1703 [17]): inactive; inhibition [18]: Active; inhibition (NCI-H1650 [19]): Active; Activity (NCI-H1703 [20]): Active; inhibition [21]: Active; inhibition at 5 µM (NCI-H1650 [22]): 99%; Activity (HCC827): Active; Activity (Homo sapiens [23]): Active; inhibition [24]: Active; inhibition [25]: Active; inhibition [26]: Active; inhibition [27]: Active; Activity (NCI-H1703 [28]): Non-Toxic; Activity (Homo sapiens [29]): Active |
| COC(=O)[C@H](Cc1ccc(OCc2ccccc2)cc1)NC(=O)CC1CCN(C(=O)CCc2ccc(C#N)cc2)CC1 | Non-Toxic | Non-Toxic | Active | inactive | Active | Active | 77.6 | Active | Active | Active | Active | Non-Toxic | Active | Active | Active | Active | Non-Toxic | Active | Non-Toxic | Active | inhibition (NCI-H1703 [15]): Active; Activity (NCI-H1650 [16]): Active; inhibition (NCI-H1703 [17]): inactive; inhibition [18]: Active; inhibition (NCI-H1650 [19]): Active; Activity (NCI-H1703 [20]): Active; inhibition [21]: Active; inhibition at 5 µM (NCI-H1650 [22]): 80.2%; Activity (HCC827): Active; Activity (Homo sapiens [23]): Active; inhibition [24]: Active; inhibition [25]: Active; inhibition [26]: Active; inhibition [27]: Active; Activity (NCI-H1703 [28]): Non-Toxic; Activity (Homo sapiens [29]): Active |
